These results are taken from US10813891B2, “Method of inhibiting chronification of pain” (priority 2011, dated 2020).

Experiment [1] concerns CCI-ION rats. The following applies: cited from earlier work.
The subject of experiment [2] is CCI-SN rats. Format: in vivo, rat. To be noted: rat, in vivo. On the procedure: (§1) Male Sprague-Dawley rats (Charles River Laboratories, L'Arbresle, France), weighing 150-200 g on arrival, were used. Animals were maintained under controlled environmental conditions (22±1° C., 60% relative humidity, 12 h/12 h light/dark cycle, food and water ad libitum) starting from reception in the laboratory, for at least 1 week before any intervention or treatment and thereafter, until euthanasia.
Rats were anaesthetized as above and the common sciatic nerve was exposed. Using a dissection microscope (2× magnification), four chromic catgut (5-0) ligations were tied loosely with about 1 mm spacing, proximally to the sciatic trifurcation (Bennett and Xie, 1988). Finally, the skin and muscle were sewed using silk sutures (4-0). In sham-operated animals, the same surgery was performed, but the nerve was not ligated.
(§2) Tapentadol (1, 3 and 10 mg/kg i.p.), reboxetine (10 mg/kg i.p.), morphine (1 and 3 mg/kg s.c.) or their vehicle (0.9% NaCl) were injected acutely 14 days after surgery, when allodynia/hyperalgesia reached a plateau in both CCI-SN and CCI-ION rats. Behavioral tests were performed at various times for up to 4 h after injection. In drug association procedure, reboxetine or saline was administered 15 min before morphine or saline.
(§3) Subchronic treatment consisted of twice daily injections of tapentadol (10 mg/kg, i.p. at 10:00 am and 6:00 pm) or saline for 4 days starting on the 15th day after nerve ligation in both CCI-ION and CCI-SN rats. Animals were further injected with tapentadol (10 mg/kg i.p.) or saline at 10:00 am the following day (19th day post-surgery), and assessment of allodynia with von Frey filament tests (see below) was made at various times up to 4 hours after this injection. All rats were killed by decapitation 4 hours after the last injection for real-time qRT-PCR determinations of specific mRNAs in ganglia and central tissues (see below).
Before testing, each rat was habituated for 2 h as above, and mechanical sensitivity was then determined with a graded series of […] von Frey filaments, that produced a bending force of 6, 8, 10, 12, 15, 26, and 60 g, respectively. The stimuli were applied within the SN territory (lateral part of the hind paw sole). Each filament was tested three times on the nerve-injured side in increasing order starting with the filament producing the lowest force. As for the CCI-ION rats, the von Frey filaments were applied at least 3 seconds after the rat had returned to its initial resting state. The minimal force filament for which animals presented either a brisk paw withdrawal and/or an escape attempt in response to at least 2 out of the 3 stimulations allowed determination of the mechanical response threshold. The 60.00 g filament was chosen as the cutoff threshold to inhibit any tissue injury.
A—Two weeks after unilateral chronic constriction injury to the sciatic nerve, pressure threshold values (as g) to trigger nocifensive responses to von Frey filaments application onto the plantar surface of ipsilateral hindpaw were determined at various times after acute injection of tapentadol (1, 3 or 10 mg/kg, i.p.) or saline. B—On day 15 (D on abscissa) after nerve ligation, rats were treated subchronically with tapentadol (10 mg/kg, i.p., twice daily, at 10:00 AM and 6:00 PM) or saline for four days. On the following day (day 19 after surgery), both tapentadol- and saline-pretreated CCI-SN rats were injected with tapentadol (10 mg/kg, i.p.; 0 on abscissa) and then subjected to von Frey filaments' test applied to ipsilateral hindpaw for determination of pressure threshold values (as g) at various times thereafter.

In experiment [3] the test system is CCI-ION rats. Format: in vivo, rat. To be noted: rat, in vivo. Here is the method: as §1
Rats were anaesthetized with sodium pentobarbital (50 mg/kg i.p.). Unilateral CCI-ION was performed under direct visual control using a Zeiss microscope (10-25×). Briefly, the head was fixed in a Horsley-Clarke stereotaxic frame and a midline scalp incision was made, exposing skull and nasal bone. The edge of the orbit, formed by the maxillary, frontal, lacrimal, and zygomatic bones, was dissected free. The orbital contents were then gently deflected to give access to the infraorbital nerve which was dissected free at its most rostral extent in the orbital cavity, just caudal to the infraorbital foramen. Only 5 mm of the nerve could be freed, providing the space for placement of two chromic catgut (5-0) ligations tied loosely (with about 2 mm spacing) around it. […] Finally, scalp incision was closed using silk sutures (4-0). In sham-operated rats, the ION was exposed using the same procedure, but was not ligated.
as §2, §3
Rats were placed individually in small (35×20×15 cm) plastic cages for a 2 h habituation period. Before any stimulation session, rats freely explored the observation cage and the testing environments for 2 h. Then mechanical sensitivity was determined with a graded series of […] von Frey filaments (Bioseb, Bordeaux, France). The filaments produced a bending force of 0.40, 0.60, 1.00, 2.00, 4.00, 6.00, 8.00, 10.00 and 12.00 g, respectively. The stimuli were applied within the ION territory (vibrissae pad) three times on the nerve-injured side and then on the contralateral side for a total of 6 applications of each filament per rat, always beginning with the filament producing the lowest force. The von Frey filaments were applied at least 3 seconds after the rat had returned to its initial resting state. For each session, the complete series of von Frey filaments was tested in increasing force order. […] The latter responses represented the highest scores in the rank-ordered response scoring system initially described by Vos et al. (1994). Under our own conditions, the mechanical response threshold was determined as the minimal force filament causing at least one among these responses to at least 2 out of the 3 applications in vibrissae territory. […] To avoid nonspecific responses, only these rats were included in the study.

Experiment [4] deals with mice hindpaw after incision. The following applies: mouse, in vivo; cited from earlier work.
Experiment [5] has as its system CCI-SN rats. The following applies: rat, in vivo; cited from earlier work.

Entries after “also recorded” stand apart in the source; their conditions may differ. Where two headings read alike, the source gives them in different places.

For `NC1CCN(O)C1=O` (single isomer, unassigned; (+)) [(+)-HA966], the “cephalic neuropathic pain, each drug alone” value in the experiment on CCI-ION rats [1] (each drug alone) is “inactive”.

Consider `CN1CC[C@]23c4c5ccc(O)c4O[C@H]2[C@@H](O)C=C[C@H]3[C@H]1C5` [morphine], for which, in the experiment on CCI-SN rats [2], the “effect on CCI-SN-induced mechanical allodynia” value is recorded as “fully reversed CCI-SN-induced mechanical allodynia; also recorded: allodynia was not completely reversed”; the “persistence of reversal of allodynia” value is on record as “at least one hour”; the “pressure threshold values, either drug alone” value is “only discrete increases in pressure threshold values”. Besides, the “maximum increase in pressure threshold value, as % of that in healthy intact rats” value in the experiment on CCI-ION rats [3] was 20%. The incision-induced hyperalgesia entry in experiment [4] was “does not inhibit incision-induced hyperalgesia; also recorded: hyperalgesia is even maintained”. For the same molecule, the “allodynia/hyperalgesia in the hindpaw” value with CCI-SN rats [5] is listed as “reversed allodynia/hyperalgesia in the hindpaw”. In the experiment on CCI-ION rats [1] (rat, in vivo), the “allodynia in the vibrissae territory” value is “inactive against allodynia in the vibrissae territory” and the “cephalic neuropathic pain, each drug alone” value is “inactive”.

`CCOc1ccccc1OC(c1ccccc1)C1CNCCO1` (stereo not shown) [reboxetine]: the “pressure threshold values, either drug alone” value with CCI-SN rats [2] is on record as “only discrete increases in pressure threshold values”. The anti-allodynic effect alone entry in the experiment with CCI-ION rats [3] was “completely inactive on its own”.

For `NC1=N[C@H](O)[C@H]2[C@H]3O[C@]4(O)O[C@@H]([C@@H](O)[C@@]2(N1)[C@@H]4O)[C@]3(O)CO` [tetrodotoxin], the “allodynia/hyperalgesia in the hindpaw” value in the experiment with CCI-SN rats [5] was “reversed allodynia/hyperalgesia in the hindpaw”. In the experiment with CCI-ION rats [1] (rat, in vivo), the “allodynia in the vibrissae territory” value is “inactive against allodynia in the vibrissae territory”.
